Here are results for 17 compounds from PubChem BioAssay (NCI).

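In this assay, cells in 96-well plates receive the compound at five concentrations for 48 hours. Endpoints are linearly interpolated between the surrounding concentrations. GI50 = concentration required for 50% inhibition of growth. TGI is the concentration that stops growth completely.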 Where only a bound is given, the exact number is not on record here.

What all share (assay): NCI tumour cell line growth inhibition, 48 h
For assay [1], the system named is NCI-H23 lung.
Assay [2] concerns SF-268 CNS.
For assay [3], the system named is SN12C renal.
In assay [4] the test system is NCI-H226 lung.
Assay [5] deals with SNB-19 CNS.
Assay [6] has as its system HCT-116 colon.
For assay [7], the system named is TK-10 renal.
For assay [8], the system named is 786-0 renal.
The subject of assay [9] is UACC-62 melanoma.
In assay [10] the test system is K-562 leukemia.

Take `COC(=O)/C=C1/CCC2[C@@H](C(=O)CC3[C@]2(C)CCC[C@@]3(C)C(=O)OC)C1C` (stereo not given in full): the TGI in assay [1] stood at 31.6 µM; in assay [2], 38.6 µM; in assay [3], 40.6 µM; in assay [4], 46.1 µM; in assay [5] it was 33.4 µM; in assay [6] it was 19.1 µM. Besides, the TGI amounted to 36.1 µM in [7], 36 µM in assay [8], 30.1 µM in [9] and 14.2 µM in assay [10].
Regarding `CC1=C[C@H]2c3c(c(O)c(O)c4oc5c(C)cccc5c(=O)c34)[C@H](c3cc(O)c(O)c4oc5c(C)cccc5c(=O)c34)[C@H]2C(C)(C)C1`, the GI50 was 1.24 µM in assay [1]; 1.74 µM in [2]; 1.69 µM in assay [3]; 2.21 µM in assay [4]; 2.27 µM in [5]; 0.899 µM in [6]. For the same compound, the GI50 in assay [7] was 2.51 µM; in assay [8], 2.85 µM; in [9] it was 1.6 µM; in assay [10] it was 1.67 µM. The TGI came out at 3.42 µM in assay [1]; 11.7 µM in [2]; 6.7 µM in [3]; 5.99 µM in assay [4]; 11.2 µM in assay [5]; 2.69 µM in assay [6]. Also, the TGI was 11.7 µM in assay [7], 9.29 µM in assay [8], 3.27 µM in [9] and over 100 µM in assay [10].
On to `Cc1cc(O)cc2oc(=O)c3c(O)cc(O)cc3c12`, for which the TGI in assay [1] is 48 µM; in assay [2] it was 76.5 µM; in assay [3], over 100 µM; in assay [4], 91.8 µM; in assay [5], 76 µM; in assay [6], 37.6 µM. Moreover, the TGI in [7] is over 100 µM; in assay [8] it was over 100 µM; in assay [9], 81 µM; in [10], over 100 µM.
In the case of `COc1cc(NS(C)(=O)=O)ccc1Nc1c2ccc(Cl)cc2nc2c(OC)cccc12`, the GI50 in assay [1] is 0.125 µM; in assay [2], 0.131 µM; in assay [3], 0.0628 µM; in [4] it was 0.0806 µM; in [5] it was 0.135 µM; in [6], 0.0794 µM. Besides, the GI50 in [7] is 0.137 µM; in [8], 0.0526 µM; in assay [9], 0.189 µM; in [10] it was 0.425 µM. In addition, the TGI in assay [1] was found to be 5.36 µM; in assay [2], 11.5 µM; in [3], 3.53 µM; in [4], 0.83 µM; in assay [5] it was 22.3 µM; in [6], 2.05 µM. In addition, the TGI in [7] was 1.83 µM; in assay [8], 0.689 µM; in [9] it was 2.96 µM; in assay [10] it was over 100 µM.
As to `[O-]c1c2c(nn1-c1ccccc1)c1ccccc1c[n+]2Cc1ccccc1`, the TGI in assay [1], in assay [2], in assay [3], in [4], in assay [5] and in assay [6] was over 100 µM throughout. In addition, the TGI in [7], in assay [8], in assay [9] and in [10] was over 100 µM each time.
Take `Cc1ccc(NC(=O)C(=O)C2C(=O)N(c3ccccc3)N=C2N)cc1C` (stereo not given): the TGI in assay [1], in assay [2], in assay [3], in [4], in assay [5] and in assay [6] was over 100 µM in each case. The TGI in assay [7], in assay [8], in assay [9] and in [10] was over 100 µM throughout.
For `CN(C)CCNC(=O)c1cc2ccccc2c2nc3ccccc3nc12`, the TGI was determined as 2.69 µM in [1]; 2.02 µM in assay [2]; 3.89 µM in assay [3]; 2.44 µM in assay [4]; 8.2 µM in [5]; 1.87 µM in [6]. The TGI is 7.17 µM in assay [7], over 38.2 µM in assay [8], 7.3 µM in assay [9] and 1.96 µM in assay [10].
Regarding `CCCN(CCC)C(=O)C1=Cc2ccc(-c3ccc(C(=O)N4CCCC4)cc3)cc2N=C(N)C1`, the GI50 is 8.92 µM in assay [1]; 15.5 µM in [2]; 18.4 µM in assay [3]; 12.1 µM in [4]; 18.8 µM in assay [5]; 4.55 µM in assay [6]. The GI50 in assay [7] was 19.6 µM; in assay [8], 14.7 µM; in assay [9], 9.17 µM; in [10], 4.45 µM. In addition, the TGI in [1] was 38.9 µM; in assay [2] it was 46 µM; in assay [3], 60 µM; in assay [4] it was 62 µM; in [5], over 100 µM; in assay [6], 19.2 µM. The TGI in assay [7] worked out at 70.1 µM; in assay [8], 42.3 µM; in assay [9] it was 26.4 µM; in assay [10] it was 26.9 µM.
Turning to `C[C@@H]1CN(C(=O)c2ccc(NC(=O)c3cc(O[C@H](C)c4c(Cl)ccc(F)c4Cl)c(N)nn3)cc2)C[C@H](C)N1`, the GI50 in assay [1] was 3.17 µM; in [2], 4.5 µM; in assay [3], 2.41 µM; in assay [4], 3.9 µM; in [5], 5.41 µM; in assay [6] it was 1.46 µM. The GI50 was 11.5 µM in assay [7], 4.63 µM in assay [8], 1.7 µM in [9] and 0.37 µM in assay [10]. Besides, the TGI stood at 20.6 µM in assay [1]; 17.7 µM in assay [2]; 13.6 µM in [3]; 22.5 µM in [4]; 18.1 µM in [5]; 10.7 µM in assay [6]. For the same compound, the TGI is 23.6 µM in [7], 15.7 µM in assay [8], 5.24 µM in [9] and 10.2 µM in assay [10].
Consider `CC1=NN(c2ccccc2)C(=O)C1=C1SCCS1`, for which the TGI is over 100 µM in assay [1]; over 100 µM in assay [2]; over 100 µM in assay [3]; over 100 µM in [4]; over 100 µM in assay [5]; over 64.6 µM in assay [6]. The TGI in assay [7] is over 100 µM; in [8], over 100 µM; in [9] it was over 100 µM; in [10], over 69.1 µM.
`CC(C)(C)NC(C1=CC(C)(C)c2ccccc2C1=O)c1ccccc1` (stereo not given): the GI50 is 1.49 µM in assay [1]; 1.38 µM in assay [2]; 1.61 µM in assay [3]; 1.42 µM in assay [4]; 3.36 µM in assay [5]; 1.35 µM in assay [6]. Also, the GI50 was 1.75 µM in [7], 1.75 µM in assay [8], 1.3 µM in [9] and 1.67 µM in assay [10]. Further, the TGI was determined as 3.17 µM in [1]; 2.74 µM in assay [2]; 3.57 µM in [3]; 3.17 µM in [4]; 14.2 µM in assay [5]; 2.64 µM in assay [6]. For the same compound, the TGI in [7] was 3.39 µM; in assay [8] it was 3.13 µM; in assay [9], 2.82 µM; in assay [10], 3.86 µM.
For `Cn1nccc1Nc1nccc(-c2cc3c(s2)C(C)(C)N(CCN2CCOCC2)C3=O)n1`, the GI50 in [1] is 0.858 µM; in assay [2], 27.8 µM; in assay [3], 17.1 µM; in assay [4], 20.2 µM; in assay [5], 41.9 µM; in [6] it was 0.594 µM. The GI50 in assay [7] is 1.31 µM; in assay [8], 14.7 µM; in assay [9], 0.274 µM; in [10], 11.7 µM. In addition, the TGI in assay [1], in [2], in [3], in [4], in assay [5] and in [6] was over 100 µM throughout. The TGI in [7], in [8], in assay [9] and in assay [10] was over 100 µM each time.
As to `Cc1cc(N2CCCCC2)nc(N(CCCNc2ccnc3cc(Cl)ccc23)Cc2ccco2)n1`, the GI50 was 1.58 µM in assay [1]; 2.86 µM in assay [2]; 2.14 µM in assay [3]; 2.9 µM in [4]; 2.93 µM in [5]; 1.15 µM in assay [6]. The GI50 in assay [7] was 2.63 µM; in assay [8], 1.61 µM; in assay [9] it was 1.89 µM; in assay [10], 1.38 µM. In addition, the TGI is 3.8 µM in assay [1]; 11.9 µM in assay [2]; 7.15 µM in [3]; 11.8 µM in assay [4]; 13.5 µM in assay [5]; 3.28 µM in assay [6]. Also, the TGI in assay [7] is 8.12 µM; in assay [8], 3.27 µM; in [9] it was 3.73 µM; in assay [10], 5.37 µM.
With `O=[N+]([O-])c1ccc(Br)c([N+](=O)[O-])c1`, the GI50 in [1] was 1.82 µM; in [2], 1.93 µM; in assay [3] it was 2.37 µM; in assay [4] it was 8.36 µM; in [5], 2.9 µM; in [6], 2.09 µM. Besides, the GI50 in [7] is 2.3 µM; in [8], 3.35 µM; in assay [9], 2.56 µM; in assay [10] it was 1.98 µM. In addition, the TGI in assay [1] stood at 3.66 µM; in [2] it was 3.94 µM; in assay [3], 5.68 µM; in assay [4], 23.5 µM; in [5], 9.28 µM; in [6], 5.02 µM. Moreover, the TGI in assay [7] is 6.22 µM; in assay [8], 10.9 µM; in assay [9] it was 6.87 µM; in assay [10], over 23.5 µM.
For `COc1ccc(CCN2C(=O)C=CC2=O)cc1OC`, the TGI is 53.8 µM in [1]; 54.4 µM in assay [2]; 32.5 µM in assay [3]; 13 µM in assay [4]; 37.2 µM in assay [5]; 11.2 µM in [6]. For the same compound, the TGI was 33.2 µM in [7], 8.15 µM in [8], 31 µM in assay [9] and over 100 µM in [10].
With `O=C(Nc1ccccc1O)c1cccc(NC2=C(Cl)C(=O)N(Cc3ccccc3)C2=O)c1`, the GI50 in [1] was 3.44 µM; in assay [2] it was 11.3 µM; in [3], 2.22 µM; in assay [4] it was 3.7 µM; in [5], 13.9 µM; in [6] it was 2.97 µM. Moreover, the GI50 in assay [7] is 4.69 µM; in [8], 2.3 µM; in assay [9], 2.33 µM; in assay [10] it was 2.15 µM. Moreover, the TGI in assay [1] was determined as 9.38 µM; in assay [2] it was 27.5 µM; in assay [3], 7.57 µM; in [4], 11.5 µM; in [5] it was 37.5 µM; in assay [6], 12.1 µM. Besides, the TGI in assay [7] came to 13.4 µM; in assay [8] it was 6.78 µM; in [9], 6.79 µM; in [10], 9.06 µM.
On to `C[n+]1c(/C=C\c2ccc(Cl)cc2)ccc2ccccc21`, for which the GI50 in assay [1] was 31 µM; in [2], 29.8 µM; in assay [3], 4.13 µM; in assay [4], 72.1 µM; in assay [5], 4.49 µM; in assay [6], 12.6 µM. For the same compound, the GI50 was over 100 µM in assay [7], over 100 µM in assay [8], 17.7 µM in assay [9] and 8.69 µM in [10]. Besides, the TGI was over 100 µM in [1]; over 100 µM in assay [2]; 84 µM in assay [3]; over 100 µM in [4]; over 100 µM in assay [5]; over 100 µM in [6]. The TGI is over 100 µM in assay [7], over 100 µM in assay [8], 52 µM in assay [9] and over 100 µM in assay [10].
